Laboratory results from US20240158446A1, “CYCLIC COMPOUND HAVING SELECTIVE INHIBITORY ACTION ON KRAS OVER HRAS AND NRAS” (CHUGAI SEIYAKU KABUSHIKI KAISHA, priority 2021, published 2024).
Where a SMILES comes first, the peptide text is derived from it. Bridges are numbered along the chain shown (N, C = ends). [ ]: non-standard residue; d: D form. The star is where a group is joined. hPhe(3-Cl-4-CF3) = N[C@@H](CCc1ccc(C(F)(F)F)c(Cl)c1)C(=O)O; NEtPhe(4-Me) = CCN[C@@H](Cc1ccc(C)cc1)C(=O)O; NMePhe(4-Me) = CN[C@@H](Cc1ccc(C)cc1)C(=O)O; NMeGly(cPent) = CN[C@H](C(=O)O)C1CCCC1; Hyp = O=C(O)[C@@H]1C[C@@H](O)CN1; NMeF = CN[C@@H](Cc1ccccc1)C(=O)O; NMeD = CN[C@@H](CC(=O)O)C(=O)O; NMeL = CN[C@@H](CC(C)C)C(=O)O; Morpholide = C1CN(*)CCO1; NMeA = CN[C@@H](C)C(=O)O; Ac5c = NC1(C(=O)O)CCCC1; Aze = O=C(O)[C@@H]1CCN1; NEtG = CCNCC(=O)O; Sar = CNCC(=O)O

Tests used:
[1] = target: GDP-bound KRAS wild-type protein (Homo sapiens, UniProt P01116); experiment: Binding to KRAS by surface plasmon resonance (SPR), Single Cycle Kinetics; details: SPR Single Cycle Kinetics, GDP-bound KRAS wild-type protein, 1:1 binding model; read-out: KRAS KD
Chain of GDP-bound KRAS wild-type protein (P01116 whole entry): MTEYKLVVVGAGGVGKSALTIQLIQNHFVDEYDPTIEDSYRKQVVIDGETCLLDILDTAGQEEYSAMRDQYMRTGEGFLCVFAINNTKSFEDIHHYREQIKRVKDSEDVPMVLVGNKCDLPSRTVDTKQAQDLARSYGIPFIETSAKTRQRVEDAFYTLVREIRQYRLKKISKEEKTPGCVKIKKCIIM

[2] = target: GDP-bound NRAS wild-type protein (Homo sapiens, UniProt P01111); experiment: Binding to NRAS by surface plasmon resonance (SPR), Single Cycle Kinetics; details: SPR, GDP-bound NRAS wild-type protein vs GDP-bound KRAS wild-type protein
Chain of GDP-bound NRAS wild-type protein (P01111 whole entry): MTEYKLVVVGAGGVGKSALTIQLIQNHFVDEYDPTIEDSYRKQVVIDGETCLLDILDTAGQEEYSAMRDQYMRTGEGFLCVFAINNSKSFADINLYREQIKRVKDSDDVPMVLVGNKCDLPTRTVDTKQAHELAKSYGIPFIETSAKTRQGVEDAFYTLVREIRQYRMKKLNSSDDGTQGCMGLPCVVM

[3] = target: GDP-bound HRAS wild-type protein (Homo sapiens, UniProt P01112); experiment: Binding to HRAS by surface plasmon resonance (SPR), Single Cycle Kinetics; details: SPR, GDP-bound HRAS wild-type protein vs GDP-bound KRAS wild-type protein
Chain of GDP-bound HRAS wild-type protein (P01112 whole entry): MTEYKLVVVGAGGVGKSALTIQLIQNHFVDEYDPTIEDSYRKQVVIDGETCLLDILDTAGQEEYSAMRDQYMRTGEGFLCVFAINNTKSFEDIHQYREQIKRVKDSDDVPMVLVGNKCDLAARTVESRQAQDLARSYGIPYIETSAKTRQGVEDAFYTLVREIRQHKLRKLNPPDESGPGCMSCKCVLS

| Structure (SMILES) | Kd [1] | NRAS/KRAS (ratio of KD value for NRAS to KD value for KRAS) [2] | HRAS/KRAS (ratio of KD value for HRAS to KD value for KRAS) [3] |
| --- | --- | --- | --- |
| CC[C@H](C)[C@@H]1NC(=O)[C@H](C)N(C)C(=O)C[C@@H](C(=O)N2CCOCC2)N(C)C(=O)[C@H](C2CCCC2)N(C)C(=O)C2(CCCC2)NC(=O)[C@@H]2CCCN2C(=O)[C@H](CCc2ccc(C(F)(F)F)c(Cl)c2)NC(=O)CN(C)C(=O)[C@H](Cc2ccc(C)cc2)N(CC)C(=O)[C@@H]2CCN2C(=O)[C@H](C)N(C)C1=O [PP0007] ([NMeA]I[NMeA][Aze][NEtPhe(4-Me)][Sar][hPhe(3-Cl-4-CF3)]P[Ac5c][NMeGly(cPent)][NMeD]-Morpholide; lactam N-11) | 0.074 nM | C (A compound having a KD ratio of 0.1 or more and less than 3 is denoted as C) | C (A compound having a KD ratio of 0.1 or more and less than 3 is denoted as C) |
| CC[C@H](C)[C@@H]1NC(=O)[C@H](CC(C)C)N(C)C(=O)C[C@@H](C(=O)N2CCOCC2)N(C)C(=O)[C@H](C2CCCC2)N(C)C(=O)C2(CCCC2)NC(=O)[C@@H]2CCCN2C(=O)[C@H](CCc2ccc(C(F)(F)F)c(Cl)c2)NC(=O)CN(C)C(=O)[C@H](Cc2ccccc2)N(C)C(=O)[C@@H]2CCN2C(=O)[C@H](C)N(C)C1=O [PP0011] ([NMeL]I[NMeA][Aze][NMeF][Sar][hPhe(3-Cl-4-CF3)]P[Ac5c][NMeGly(cPent)][NMeD]-Morpholide; lactam N-11) | 0.3 nM | C (A compound having a KD ratio of 0.1 or more and less than 3 is denoted as C) | C (A compound having a KD ratio of 0.1 or more and less than 3 is denoted as C) |
| CC[C@H](C)[C@@H]1NC(=O)[C@H](CC(C)C)N(C)C(=O)C[C@@H](C(=O)N2CCOCC2)N(C)C(=O)[C@H](C2CCCC2)N(C)C(=O)C2(CCCC2)NC(=O)[C@@H]2C[C@@H](O)CN2C(=O)[C@H](CCc2ccc(C(F)(F)F)c(Cl)c2)NC(=O)CN(C)C(=O)[C@H](Cc2ccc(C)cc2)N(CC)C(=O)[C@@H]2CCN2C(=O)[C@H](C)N(C)C1=O [PP0013] ([NMeL]I[NMeA][Aze][NEtPhe(4-Me)][Sar][hPhe(3-Cl-4-CF3)][Hyp][Ac5c][NMeGly(cPent)][NMeD]-Morpholide; lactam N-11) | 0.073 nM | C (A compound having a KD ratio of 0.1 or more and less than 3 is denoted as C) | C (A compound having a KD ratio of 0.1 or more and less than 3 is denoted as C) |

Further lines, with some results ahead:

| Kd [1] | Structure (SMILES) | NRAS/KRAS (ratio of KD value for NRAS to KD value for KRAS) [2] | HRAS/KRAS (ratio of KD value for HRAS to KD value for KRAS) [3] |
| --- | --- | --- | --- |
| 2.4 nM | CC[C@H](C)[C@@H]1NC(=O)[C@H](CC(C)C)N(C)C(=O)C[C@@H](C(=O)N2CCOCC2)N(C)C(=O)[C@H](C2CCCC2)N(C)C(=O)C2(CCCC2)NC(=O)[C@@H]2CCCN2C(=O)[C@H](CCc2ccc(C(F)(F)F)c(Cl)c2)NC(=O)CN(CC)C(=O)[C@H](Cc2ccc(C)cc2)N(C)C(=O)[C@@H]2CCN2C(=O)[C@H](C)N(C)C1=O [PP0004] ([NMeL]I[NMeA][Aze][NMePhe(4-Me)][NEtG][hPhe(3-Cl-4-CF3)]P[Ac5c][NMeGly(cPent)][NMeD]-Morpholide; lactam N-11) | C (A compound having a KD ratio of 0.1 or more and less than 3 is denoted as C) | C (A compound having a KD ratio of 0.1 or more and less than 3 is denoted as C) |
| 1.5 nM | CC[C@H](C)[C@@H]1NC(=O)[C@H](CC(C)C)N(C)C(=O)C[C@@H](C(=O)N2CCOCC2)N(C)C(=O)[C@H](C2CCCC2)N(C)C(=O)C2(CCCC2)NC(=O)[C@@H]2CCCN2C(=O)[C@H](CCc2ccc(C(F)(F)F)c(Cl)c2)NC(=O)CN(CC)C(=O)[C@H](Cc2ccc(C)cc2)N(CC)C(=O)[C@@H]2CCN2C(=O)[C@H](C)N(C)C1=O [PP0006] ([NMeL]I[NMeA][Aze][NEtPhe(4-Me)][NEtG][hPhe(3-Cl-4-CF3)]P[Ac5c][NMeGly(cPent)][NMeD]-Morpholide; lactam N-11) | C (A compound having a KD ratio of 0.1 or more and less than 3 is denoted as C) | C (A compound having a KD ratio of 0.1 or more and less than 3 is denoted as C) |
